Where two headings read alike, the source gives them in different places.
What was measured:
CBL-B (residues 36-427) = target: T1, CBL-B (residues 36-427) (Homo sapiens, UniProt Q13191); experiment: Ligand Displacement Assay (LDA), HTRF competitive binding against BODIPY-labeled fluorescent tracer, CBL-B; conditions: geometric mean of the number of tests, read-out: CBL-B Ki (nM) GMean
T1 construct: Purified CBL-B (residues 36-427) and C-CBL (residues 46-435) proteins from baculovirus-infected insect cells; made in house; host or cells: baculovirus-infected insect cells
How it was run: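 Insect-cell (baculovirus) protein, N-term AviTag biotinylated via BirA, captured by SA-Tb; BODIPY tracer, KD measured per protein. 3-fold serial dilutions, duplicate, […], 2% DMSO final. Ki (nM) = geomean of runs.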

CBL-B = target: T2, CBL-B (Homo sapiens, UniProt Q13191); experiment: Jurkat HiBit-IL2 assay (c-CBL KO), reporter cell line expressing CBL-B only; assay type: cell-based; conditions: geometric mean, read-out: C-CBL KO EC50 (nM) GMean
T2 construct: endogenous in cells; host or cells: Jurkat HiBit-IL2 reporter cells, C-CBL knocked out by CRISPR
How it was run: (§1)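 CRISPR knockout Jurkat HiBit-IL2 reporter cells (20,000/well) were preincubated 1 h with compounds (0.1% DMSO), then stimulated 4 h at 37 °C with anti-CD3 (1 μg/ml) and anti-CD28 (2 μg/ml) final. IL-2 was read by HiBiT lytic luminescence, normalized as fold over antibody-only baseline; EC50 reported as geometric mean.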

C-CBL = target: T3, C-CBL (Homo sapiens, UniProt P22681); experiment: Jurkat HiBit-IL2 assay (CBL-B KO), reporter cell line expressing C-CBL only; assay type: cell-based; conditions: geometric mean, read-out: CBL-B KO EC50 (nM) GMean
T3 construct: endogenous in cells; host or cells: Jurkat HiBit-IL2 reporter cells, CBL-B knocked out by CRISPR
How it was run: as §1

[1] = C-CBL KO (expressing CBL-B only), Table 16b (further repetition)
[2] = c-CBL KO (CBL-B only), anti-CD3/anti-CD28 stimulation 4 hours, Table 16a
[3] = CBL-B KO (C-CBL only), anti-CD3/anti-CD28 stimulation 4 hours, Table 16a
[4] = CBL-B KO (expressing C-CBL only), Table 16b (further repetition)

Structure (SMILES) | Ki (CBL-B (residues 36-427)) | EC50 (CBL-B; [1]) | EC50 (CBL-B; [2]) | EC50 (C-CBL; [3]) | EC50 (C-CBL; [4])
Cn1cnnc1[C@@H](c1cccc(-c2n[nH]c3c(CN[C@@H]4CCC[C@@H]4O)nc(C(F)(F)F)cc23)c1)C1CCC1 [Example C1, (1S,2R)-2-({[3-{3-[(R)-cyclobutyl(4-methyl-4H-1,2,4-triazol-3-yl)methyl]phenyl}-5-(trifluoromethyl)-1H-pyrazolo[3,4-c]pyridin-7-yl]methyl}amino)cyclopentan-1-ol] | 0.6 nM | 116 nM | 25 nM | 275 nM | 584 nM
C[C@@H]1CCCN(Cc2nc(C(F)(F)F)cc3c(-c4cccc(C5(Cc6nncn6C)COC5)c4)n[nH]c23)C1 [Example C29, 7-{[(3R)-3-methylpiperidin-1-yl]methyl}-3-(3-{3-[(4-methyl-4H-1,2,4-triazol-3-yl)methyl]oxetan-3-yl}phenyl)-5-(trifluoromethyl)-1H-pyrazolo[3,4-c]pyridine] | 8.5 nM |  | 204 nM | 1320 nM | 
CC1CN(Cc2nc(C(F)(F)F)cc3c(-c4cccc(C5(Cc6nncn6C)COC5)c4)n[nH]c23)CCC1(F)F (single isomer, unassigned) [Example C32, 7-{[(3ξ)-4,4-difluoro-3-methylpiperidin-1-yl]methyl}-3-(3-{3-[(4-methyl-4H-1,2,4-triazol-3-yl)methyl]oxetan-3-yl}phenyl)-5-(trifluoromethyl)-1H-pyrazolo[3,4-c]pyridine] | 6.7 nM | 49 nM | 83 nM | 1190 nM | 110 nM
C[C@@H](N[C@@H]1CCC(F)(F)C1)c1nc(C(F)(F)F)cc2c(-c3cccc(C4(Cc5nncn5C)COC4)c3)n[nH]c12 (single isomer, unassigned) [Example C18] | 2.2 nM | 19 nM | 17 nM | 178 nM | 49 nM
C[C@@H](NC1CCCC1)c1nc(C(F)(F)F)cc2c(-c3cccc([C@H](c4nncn4C)C4CCC4)c3)n[nH]c12 (single isomer, unassigned) [Example C11] | 0.6 nM | 6 nM | 5 nM | 46 nM | 32 nM
CCNC(C)c1nc(C(F)(F)F)cc2c(-c3cccc([C@H](c4nncn4C)C4CCC4)c3)n[nH]c12 (single isomer, unassigned) [Example C89] | 8 nM | 85 nM |  |  | 471 nM
C[C@@H](c1nc(C(F)(F)F)cc2c(-c3cccc(C4(Cc5nncn5C)COC4)c3)n[nH]c12)N1C[C@H](F)[C@@H](F)C1 (single isomer, unassigned) [Example D7] | 7.4 nM |  | 80 nM | 380 nM | 
C[C@@H](NC1CC(F)(F)C1)c1nc(C(F)(F)F)cc2c(-c3cccc([C@H](c4nncn4C)C4CCC4)c3)n[nH]c12 (single isomer, unassigned) [Example D91] | 6.2 nM | 41 nM |  |  | 238 nM
C[C@@H](N[C@@H]1CCC[C@@H]1O)c1nc(C(F)(F)F)cc2c(-c3cccc([C@H](c4nncn4C)C4CCC4)c3)n[nH]c12 (single isomer, unassigned) [Example D16] | 2.5 nM |  | 18 nM | 188 nM | 
C[C@H](c1nc(C(F)(F)F)cc2c(-c3cccc(C4(Cc5nncn5C)COC4)c3)n[nH]c12)N1CCO[C@@H](C)C1 (single isomer, unassigned) [Example D12] | 15.3 nM |  | 612 nM | 973 nM | 
C[C@@H](c1nc(C(F)(F)F)cc2c(-c3cccc(C4(Cc5nncn5C)COC4)c3)n[nH]c12)N1CC[C@@H](F)C1 (single isomer, unassigned) [Example D9] | 17.4 nM |  | 627 nM | 1770 nM | 
C[C@@H](N[C@H]1C[C@@H](F)C1)c1nc(C(F)(F)F)cc2c(-c3cccc([C@H](c4nncn4C)C4CCC4)c3)n[nH]c12 (single isomer, unassigned) [Example C96] | 9.2 nM | 76 nM |  |  | 574 nM
C[C@H](c1nc(C(F)(F)F)cc2c(-c3cccc(C4(Cc5nncn5C)COC4)c3)n[nH]c12)N1C[C@H](F)[C@@H](F)C1 (single isomer, unassigned) [Example D8] | 25.4 nM |  | 603 nM | 1210 nM | 
C[C@H]1CCCN(Cc2nc(C(F)(F)F)cc3c(-c4cccc(C5(Cc6nncn6C)COC5)c4)n[nH]c23)C1 [Example C30, 7-{[(3S)-3-methylpiperidin-1-yl]methyl}-3-(3-{3-[(4-methyl-4H-1,2,4-triazol-3-yl)methyl]oxetan-3-yl}phenyl)-5-(trifluoromethyl)-1H-pyrazolo[3,4-c]pyridine] | 3.6 nM |  | 32 nM | 232 nM | 
C[C@H](NC1CCCC1)c1nc(C(F)(F)F)cc2c(-c3cccc([C@H](c4nncn4C)C4CCC4)c3)n[nH]c12 (single isomer, unassigned) [Example C10] | 11.4 nM |  | 233 nM | > 2310 nM | 
Cn1cnnc1[C@@H](c1cccc(-c2n[nH]c3c(CN[C@H]4CCC(F)(F)C4)nc(C(F)(F)F)cc23)c1)C1CCC1 (single isomer, unassigned) [Example G1] | 11 nM |  | 70 nM | 775 nM | 
C[C@H](N[C@H]1CCC(F)(F)C1)c1nc(C(F)(F)F)cc2c(-c3cccc(C4(Cc5nncn5C)COC4)c3)n[nH]c12 (single isomer, unassigned) [Example C12] | 0.9 nM | 8 nM | 4 nM | 25 nM | 16 nM
C[C@H](NC1CC(F)(F)C1)c1nc(C(F)(F)F)cc2c(-c3cccc([C@H](c4nncn4C)C4CCC4)c3)n[nH]c12 (single isomer, unassigned) [Example D90] | 8.9 nM | 73 nM |  |  | 313 nM
C[C@H](N[C@@H]1CC[C@@H]1O)c1nc(C(F)(F)F)cc2c(-c3cccc([C@H](c4nncn4C)C4CCC4)c3)n[nH]c12 (single isomer, unassigned) [Example D28] | 0.7 nM |  | 1 nM | 4 nM | 
C[C@@H]1CCCN([C@H](C)c2nc(C(F)(F)F)cc3c(-c4cccc(C5(Cc6nncn6C)COC5)c4)n[nH]c23)C1 (single isomer, unassigned) [Example D14] | 42.9 nM |  | 354 nM | 2010 nM | 
CC(C)NC(C)c1nc(C(F)(F)F)cc2c(-c3cccc([C@H](c4nncn4C)C4CCC4)c3)n[nH]c12 (single isomer, unassigned) [Example C34] | 8.9 nM | 86 nM | 67 nM | 892 nM | 428 nM
C[C@@H](N[C@H]1CC[C@@H]1O)c1nc(C(F)(F)F)cc2c(-c3cccc([C@H](c4nncn4C)C4CCC4)c3)n[nH]c12 (single isomer, unassigned) [Example D22] | 0.8 nM | 12 nM | 5 nM | 79 nM | 91 nM
C[C@H](c1nc(C(F)(F)F)cc2c(-c3cccc(C4(Cc5nncn5C)COC4)c3)n[nH]c12)N1C[C@@H](F)[C@H](F)C1 (single isomer, unassigned) [Example C26] | 40.5 nM |  | 172 nM | 1850 nM | 
C[C@@H](c1nc(C(F)(F)F)cc2c(-c3cccc(C4(Cc5nncn5C)COC4)c3)n[nH]c12)N1CCC(F)(F)C1 (single isomer, unassigned) [Example D5] | 32.7 nM |  | 650 nM | 1380 nM | 
Cn1cnnc1CC1(c2cccc(-c3n[nH]c4ncc(C(F)(F)F)cc34)c2)COC1 [Example B3, 3-(3-{3-[(4-methyl-4H-1,2,4-triazol-3-yl)methyl]oxetan-3-yl}phenyl)-5-(trifluoromethyl)-1H-pyrazolo[3,4-b]pyridine] | 75.3 nM |  | 1710 nM | 4060 nM | 

Reference: US20260125375A1 (Pfizer Inc., priority 2022, published 2026)
